Results: patent publication US9802962B2, “Tricyclic pyrone compounds reduce amyloid beta aggregates” (priority 2013, dated 2017)

How the values were obtained:
ACAT = ACAT inhibition; type: biochemical; details: read-out: half maximal inhibitory concentration (IC50), ACAT
Excerpt: It has been reported that an induction of cholesterol efflux resulting in a reduction of Aβ formation/deposition in vitro and in vivo (Kim, et al., J Alzheimers Dis, 2009, 16:121-131). For additional Detail, see the attached manuscript entitled, “Inhibition of Acyl-CoA: Cholesterol Acyltransferase (ACAT), Overexpression of Cholesterol Transporter Gene, and Protection of Amyloid β (Aβ) Oligomers-Induced Neuronal Cell Death by Tricylic Pyrone Molecules” which is incorporated herein.

[1] = log P by octanol/water partition; type: physicochemical
[2] = Plasma and organ distribution after ip administration in mice; type: in vivo; details: 25 mg/kg ip
Description: FIG. 4. Concentrations or content of TP70 in the plasma and 7 key organs following ip administration of TP70 (25 mg/kg) in mice (n=3 each data point).
In addition to determination of drug concentrations in plasma and the brain, drug content in other six key organs, the heart, liver, lungs, intestine, and kidneys of mice (male C57BL/6, 3 months, Harlan, n=3 per timepoint) were also assessed in a separate pharmacokinetic (PK) study of TP70 (25 mg/kg, ip,) using HPLC and mass spectrometry.

APP/PS1 mice = assay: SmartCage homecage activity and locomotion in APP/PS1 mice; type: in vivo; details: Day 7, TP70 in drinking water, treatment versus control group
Description: FIGS. 8A-8D. Effects of TP70 on homecage activity and locomotion in homecage monitored using the SmartCage™ system A. Active time in each time block during 24 hours. B. Travel distance in each time block during 24 hours. C. Travel speed in each time block during 24 hours. D. Rearing activity in each time block during 24 hours. The gray shadow indicates dark phase of a 12:12 light/dark cycle.
(§1) The validated SmartCage™ system that enables automated, objective, quantitative and long-term evaluation of neuropsychological endpoints at the animal's home cages (Flores, et al., IEEE Trans Biomed Eng, 2007, 54:225-233; Xiong, et al., Stroke, 2011, 42:2026-2032; Carter, et al., Nat Neurosci, 2010, 13:1526-1533; Khroyan, et al., Clin Exp Pharmacol Physiol, 2012, 39:614-622) was used to complement other special individual learning and memory tests (Shineman, et al., Alzheimers Res Ther, 2011, 3:28; Hamann, et al., Neuropsychologia, 2002, 40:1187-1195; Aultman, et al., Psychopharmacology (Berl), 2001, 153:353-364; Ashe, K H, J Alzheimers Dis, 2006, 9:123-126). […] Homecage activity and locomotion were assessed on Day 7 after the treatment and the blood samples were collected from each mouse after the assessment of general behavior. […]

[3] = Plasma concentration after 7 days of TP70 in drinking water, APP/PS1 mice; type: in vivo; details: after 7 days in drinking water
Excerpt: as §1, with “9:123-126). The SmartCage was able to reveal the behavioral phenotypes of a mouse stroke model of middle cerebral artery occlusion (MCAO) (Xiong, et al., Stroke, 2011, 42:2026-2032) and a hypocretin/orexin neuron degeneration model (orexin/ataxin-3) (Xie, et al., J Clin Invest, 2008, 118:2471-2481; Aultman, et al., Psychopharmacology (Berl), 2001, 153:353-364; Hara, et al., Neuron 2001, 30:345-354). […] These validated protocols were applied to PK/PD studies on TP70 in one more AD transgenic model, APP/PS1 mice, which express mutant APPs in combination with mutant PS1.” for “9:123-126).”

## Cc1cc2c(c(=O)o1)C=C1CCC(C(C)CNCc3ccc(O)cc3)CC1O2 (stereo not drawn) [TP70]
ACAT
  IC50: 300 nM
[1]
  log P: 1.90
[2]
  distribution in the heart: lowest distribution in the heart
[2]; mice
  distribution in the brain: higher distribution in the brain than in the plasma and all other organs examined, except for kidneys
[2]; two hours post dosing
  disposition in the kidneys: highest disposition in the kidneys
  distribution in intestines: low distribution in intestines
APP/PS1 mice
  homecage activity and locomotion: no significant differences
[3]
  plasma TP70 concentration: 1.7 ± 0.5 mg/L
  plasma TP70 concentration (equivalent): 4.3 µM
